According to patent US20060128757A1, “Pyridine derivatives useful as cyclooxygenase inhibitor” (Astellas Pharma Inc., priority 2001, published 2006):
Read-outs that look alike come from different tables or passages of the source.

Tests used:
COX-I = molecular target: T1, COX-I (Homo sapiens, UniProt P23219); assay: Whole blood assay for COX-I (TXB2 production); assay type: cell-based
T1 construct: Fresh blood was collected by syringe without anticoagulants from volunteers with consent; endogenous in cells; host or cells: fresh human whole blood from volunteers, left to clot (TXB2 read-out)
Method: Fresh blood was collected by syringe without anticoagulants from volunteers with consent. The subjects had no apparent inflammatory conditions and had not taken any medication for at least 7 days prior to blood collection. 500 μl aliquots of human whole blood were immediately incubated with 2 μl of either dimethyl sulfoxide vehicle or a test compound at final concentrations for 1 hr at 37° C. to allow the blood to clot. Appropriate treatments (no incubation) were used as blanks. […] The blood was centrifuged at 6000×g for 5 min at 4° C. to obtain serum. A 100 μl aliquot of serum was mixed with 400 μl methanol for protein precipitation. The supernatant was obtained by centrifuging at 6000×g for 5 min at 4° C. and was assayed for TXB2 using an enzyme immunoassay kit according to the manufacturer's procedure. For a test compound, the results were expressed as percent inhibition of thromboxane B2 (TXB2) production relative to control incubations containing dimethyl sulfoxide vehicle. The data were analyzed by that a test compound at the indicated concentrations was changed log value and was applied simple linear regression. IC50 value was calculated by least squares method.

COX-II = molecular target: T2, COX-II (Homo sapiens, UniProt P35354); assay: Whole blood assay for COX-II (LPS-induced PGE2 production); assay type: cell-based
T2 construct: lipopolysaccharide for 24 hr at 37° C. for induction of COX-II; endogenous in cells; host or cells: heparinized fresh human whole blood from volunteers, LPS-stimulated for 24 hr (PGE2 read-out)
T2 sequence (P35354 18-604): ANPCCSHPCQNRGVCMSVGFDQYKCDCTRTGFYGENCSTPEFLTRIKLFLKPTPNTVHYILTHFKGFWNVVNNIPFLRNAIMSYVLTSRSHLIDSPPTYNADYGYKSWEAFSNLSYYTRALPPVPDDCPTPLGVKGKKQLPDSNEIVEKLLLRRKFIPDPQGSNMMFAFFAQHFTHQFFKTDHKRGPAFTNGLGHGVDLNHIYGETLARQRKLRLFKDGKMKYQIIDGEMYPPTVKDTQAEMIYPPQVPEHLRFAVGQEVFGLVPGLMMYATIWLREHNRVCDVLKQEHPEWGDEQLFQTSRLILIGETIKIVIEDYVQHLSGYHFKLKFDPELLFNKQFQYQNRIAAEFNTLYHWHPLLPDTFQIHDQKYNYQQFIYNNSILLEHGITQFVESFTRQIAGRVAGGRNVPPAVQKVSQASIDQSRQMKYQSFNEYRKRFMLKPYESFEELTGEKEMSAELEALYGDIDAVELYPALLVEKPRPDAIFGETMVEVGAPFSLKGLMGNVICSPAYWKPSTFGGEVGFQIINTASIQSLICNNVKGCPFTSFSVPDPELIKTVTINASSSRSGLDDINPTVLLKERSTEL
Method: Fresh blood was collected in heparinized tubes by syringe from volunteers with consent. The subjects had no apparent inflammatory conditions and had not taken any medication for at least 7 days prior to blood collection. 500 μl aliquots of human whole blood were incubated with either 2 μl dimethyl sulfoxide vehicle or 2 μl of a test compound at final concentrations for 15 min at 37° C. This was followed by incubation of the blood with 10 μl of 5 mg/ml lipopolysaccharide for 24 hr at 37° C. for induction of COX-II. Appropriate PBS treatments (no LPS) were used as blanks. At the end of the incubation, the blood was centrifuged at 6000×g for 5 min at 4° C. to obtain plasma. A 100 μl aliquot of plasma was mixed with 400 μl methanol for protein precipitation. The supernatant was obtained by centrifuging at 6000×g for 5 min at 4° C. and was assayed for prostagrandin E2 (PGE2) using a radioimmunoassay kit after conversion of PGE2 to its methyl oximate derivative according to the manufacturer's procedure. For a test compound, the results were expressed as percent inhibition of PGE2 production relative to control incubations containing dimethyl sulfoxide vehicle. The data were analyzed by that a test compound at the indicated concentrations was changed log value and was applied simple linear regression. IC50 value was calculated by least squares method.

[1] = system: stomachs (gastric lesions) of rats; assay: Gastric ulcerogenic activity in rats; assay type: in vivo, Male Sprague-Dawley rats; settings: oral, 5 h before autopsy, rats fasted 24 h
Method: Male Sprague-Dawley rats were used after a 24 h fast. Drugs were orally administered to groups of 10 rats 5 h before autopsy. The stomachs were macroscopically inspected and scored as follows: 0, no evidence of gastric lesions; 1, spotty submucosal hemorrhage or appearance of erosion; 3, widespread adherence of blood and large areas of submucosal hemorrhage or one to four small ulcers; 4, more than four small ulcers or one large ulcer; 5, numerous large ulcers.

[2] = system: Adjuvant Arthritis in Rats; assay: Analgesic activity: effect on adjuvant arthritis in rats (Randall-Selitto); assay type: in vivo, Lewis rats; settings: ratio of threshold pressure of treated vs non-treated rats
[3] = system: Stretching responses in mice; assay: Stretching test (acetic acid i.p.); assay type: in vivo, Male ddY mice; settings: 10 mg/Kg orally, acetic acid i.p. 1 h after drug
Method: Male ddY mice were used after a 24 h fast. Drugs were orally administered to groups of 10 mice. Mice were injected intraperitoneally (i.p.) with 0.2 ml/10 g of 0.6% acetic acid 1 h after the drug administration and then placed singly in a plastic animal cage. Stretching responses, defined as constriction of the abdomen with stretching of the hind limbs, were counted for 10 min from 3 min after the i.p. injection of acetic acid.

[4] = 1 hr at 37° C., read-out: COX-I IC50
[5] = LPS 24 hr, read-out: COX-II IC50

T1 sequence (P23219 24-599): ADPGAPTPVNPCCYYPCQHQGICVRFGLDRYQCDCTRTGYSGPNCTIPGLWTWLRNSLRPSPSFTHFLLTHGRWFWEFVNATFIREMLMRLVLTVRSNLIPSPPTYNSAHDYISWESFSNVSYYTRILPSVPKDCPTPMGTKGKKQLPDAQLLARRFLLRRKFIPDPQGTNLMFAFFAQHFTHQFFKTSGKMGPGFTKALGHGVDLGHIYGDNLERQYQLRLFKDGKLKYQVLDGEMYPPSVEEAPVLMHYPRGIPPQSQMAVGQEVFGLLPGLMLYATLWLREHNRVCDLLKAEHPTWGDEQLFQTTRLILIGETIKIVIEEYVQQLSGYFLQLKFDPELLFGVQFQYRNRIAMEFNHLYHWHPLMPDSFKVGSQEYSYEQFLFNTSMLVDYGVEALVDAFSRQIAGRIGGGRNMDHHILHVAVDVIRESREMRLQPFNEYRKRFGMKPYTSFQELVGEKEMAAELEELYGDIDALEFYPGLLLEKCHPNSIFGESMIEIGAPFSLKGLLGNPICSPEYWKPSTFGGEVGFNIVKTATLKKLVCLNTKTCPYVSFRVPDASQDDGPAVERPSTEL

Structure (SMILES)	IC50 (COX-I; [4]) [µM]	IC50 (COX-II; [5]) [µM]	Gastric ulcerogenic activity (Non-toxic dose) [1] [mg/kg]	other results
COc1ccc(-c2cc(C#N)c(Cl)nc2-c2ccc(OC)cc2)cc1 [Example 1-(3), 2-chloro-5-(4-methoxyphenyl)-6-(4-methoxyphenyl) pyridine-3-carbonitrile]	< 0.1	> 1	–	–
COc1ccc(-c2cc(C#N)c(OC)nc2-c2ccc(OC)cc2)cc1 [Example 6, 2-methoxy-5-(4-methoxyphenyl)-6-(4-methoxyphenyl)-pyridine-3-carbonitrile]	< 0.1	> 1	–	–
COc1ccc(-c2noc(CC(=O)O)c2-c2ccc(OC)cc2)cc1 [H, Mofezolac]	–	–	10	–
CC(C(=O)O)c1cccc(C(=O)c2ccccc2)c1 (centres unmarked) [G, Ketoprofen]	–	–	3.2	–
COc1ccc(-c2cc(C#N)cnc2-c2ccc(OC)cc2)cc1 [Example 4, 5-(4-methoxyphenyl)-6-(4-methoxyphenyl)-pyridine-3-carbonitrile]	< 0.1	> 1	>100	Analgesic activity in adjuvant arthritis -3.2 mg/Kg- ([2]; 3.2 mg/Kg, 2 hr after administration): 1.57; The coefficient of analgesic ([2]; Dose 3.2 mg/kg, pain threshold 2 hr after administration, ratio of 1.5 = effective dose): >1.5; IC50 (COX-I; Table 1, read-out: Whole blood assay (IC50: μM) COX-I): 0.017 µM; IC50 (COX-II; Table 1, read-out: Whole blood assay (IC50: μM) COX-II): 1.9 µM; Inhibiting activity in stretching test [3]: 48%; melting point: 107 to 108 °C
O=C(O)Cc1ccccc1Nc1c(Cl)cccc1Cl [J, Diclofenac]	–	–	3.2	–
COc1ccc2c(c1)c(CC(=O)O)c(C)n2C(=O)c1ccc(Cl)cc1 [I, Indomethacin]	–	–	1	–
